Data published in PubChem BioAssay (NCI).
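Cultured in 96-well plates, cells were exposed to test compound for 48 hours across five concentrations. TGI: total growth inhibition.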

Experiments:
Test in all cases: growth of human tumour cells (NCI), 48 h
786-0 renal = system: 786-0 renal
A498 renal = system: A498 renal
A549 NSCLC = system: A549 NSCLC
ACHN renal = system: ACHN renal
CAKI-1 renal = system: CAKI-1 renal
COLO 205 colon = system: COLO 205 colon
DLD-1 colon = system: DLD-1 colon
DMS 114 small cell lung = system: DMS 114 small cell lung
DMS 273 small cell lung = system: DMS 273 small cell lung
EKVX NSCLC = system: EKVX NSCLC
HCC-2998 colon = system: HCC-2998 colon
HCT-116 colon = system: HCT-116 colon
HCT-15 colon = system: HCT-15 colon
HL-60(TB) leukemia = system: HL-60(TB) leukemia
HOP-18 NSCLC = system: HOP-18 NSCLC
HOP-62 NSCLC = system: HOP-62 NSCLC
HOP-92 NSCLC = system: HOP-92 NSCLC
HT29 colon = system: HT29 colon
IGROV1 ovarian = system: IGROV1 ovarian
K-562 leukemia = system: K-562 leukemia
KM12 colon = system: KM12 colon
KM20L2 colon = system: KM20L2 colon
LXFL 529 NSCLC = system: LXFL 529 NSCLC
M14 melanoma = system: M14 melanoma
M19-MEL melanoma = system: M19-MEL melanoma
MALME-3M melanoma = system: MALME-3M melanoma
MOLT-4 leukemia = system: MOLT-4 leukemia
NCI-H226 lung = system: NCI-H226 lung
NCI-H23 lung = system: NCI-H23 lung
NCI-H460 lung = system: NCI-H460 lung
OVCAR-3 ovarian = system: OVCAR-3 ovarian
OVCAR-4 ovarian = system: OVCAR-4 ovarian
OVCAR-5 ovarian = system: OVCAR-5 ovarian
OVCAR-8 ovarian = system: OVCAR-8 ovarian
RPMI-8226 leukemia = system: RPMI-8226 leukemia
RXF 393 renal = system: RXF 393 renal
RXF-631 renal = system: RXF-631 renal
SF-268 CNS = system: SF-268 CNS
SF-295 CNS = system: SF-295 CNS
SF-539 CNS = system: SF-539 CNS
SK-MEL-2 melanoma = system: SK-MEL-2 melanoma
SK-MEL-5 melanoma = system: SK-MEL-5 melanoma
SK-OV-3 ovarian = system: SK-OV-3 ovarian
SN12C renal = system: SN12C renal
SNB-19 CNS = system: SNB-19 CNS
SNB-75 CNS = system: SNB-75 CNS
SNB-78 CNS = system: SNB-78 CNS
SR leukemia = system: SR leukemia
SW-620 colon = system: SW-620 colon
TK-10 renal = system: TK-10 renal
U251 CNS = system: U251 CNS
UACC-257 melanoma = system: UACC-257 melanoma
UACC-62 melanoma = system: UACC-62 melanoma
UO-31 renal = system: UO-31 renal
XF 498 CNS = system: XF 498 CNS
CCRF-CEM leukemia = system: CCRF-CEM leukemia
NCI-H522 lung = system: NCI-H522 lung
SK-MEL-28 melanoma = system: SK-MEL-28 melanoma

Measured: TGI

CN(C)/C=N/c1nc2c(ncn2C2OC(CO)C(O)C2O)c(=O)[nH]1 (stereo unspecified)
not listed: CCRF-CEM leukemia | NCI-H522 lung | SK-MEL-28 melanoma
> 100 µM: all other assays above

CC1=NNC(=O)C2CCC(=O)N12 (stereo unspecified)
not listed: HOP-92 NSCLC | HT29 colon | NCI-H23 lung | OVCAR-5 ovarian | SF-295 CNS | UACC-62 melanoma | XF 498 CNS
> 100 µM: all other assays above
